Drawing on patent publication US20260158009A1 (GENZYME CORPORATION, priority 2023, published 2026), this text covers IC50 for 19 compounds.

The target in assay [1] is T1, hRIPK1 (aa 1-375) fusion protein (Homo sapiens, UniProt Q13546).
T1 construct: hRIPK1 (aa 1-375) fusion protein
T1 sequence (Q13546 1-375): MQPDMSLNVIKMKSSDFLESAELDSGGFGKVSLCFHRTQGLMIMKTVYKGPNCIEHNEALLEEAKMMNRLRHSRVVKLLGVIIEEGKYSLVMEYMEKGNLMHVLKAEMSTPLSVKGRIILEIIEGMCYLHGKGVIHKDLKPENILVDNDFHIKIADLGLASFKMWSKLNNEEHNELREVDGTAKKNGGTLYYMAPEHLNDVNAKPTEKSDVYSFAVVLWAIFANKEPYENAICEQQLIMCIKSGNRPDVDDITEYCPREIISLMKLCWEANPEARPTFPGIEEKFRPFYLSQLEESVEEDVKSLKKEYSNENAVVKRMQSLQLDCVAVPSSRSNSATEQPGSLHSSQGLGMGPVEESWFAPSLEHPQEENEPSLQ
Briefly: ADP-Glo kinase assay: catalytic activity of RIPK1 (autophosphorylation, conversion of ATP to ADP). The format is biochemical. An outline of the steps: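 hRIPK1 (aa 1-375) fusion protein (3.6 μg/ml final) was preincubated 30 min at rt with compound (33300-1.69 nM, 1% DMSO), then 50 μM ATP was added for 240 min at rt. ADP from autophosphorylation was measured by ADP-Glo luminescence and curves fitted by nonlinear regression.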

In a further assay the test system is U937 cells. Put plainly: Cellular assay in U937 cells: activity of RIPK1 inhibitors on TNFα/zVAD.fmk-induced cell death (necroptosis), CellTiter 96 AQueous (MTS) readout. The format is cell-based. The note with it: Homo sapiens, U-937. An outline of the steps:
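Necroptosis was measured by viable-cell MTS reduction (4 h, absorbance 490 nm) after overnight (18–24 h) 37° C culture. Cell suspensions of U937 cells carried TNFα (100 ng/ml) plus zVAD.fmk (50 μM) before compound was added. A 10-point curve (10 μM–0.26 nM or 1 μM–0.07 nM) was run in duplicate, normalised to the control lacking TNFα/zVAD.fmk.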

As a reminder, the IC50 is the concentration that gives 50% inhibition. Lower therefore signals greater potency in that assay.

Consider `O=C([C@H]1CC[C@H](Cn2ccc3cc(F)ccc32)CC1)N1OCC[C@H]1c1cc(F)cc(F)c1` [compound 96, trans-((S)-3-(3,5-difluorophenyl)isoxazolidin-2-yl)(4-((5-fluoro-1H-indol-1-yl)methyl)cyclohexyl)methanone], for which the IC50 in assay [1] came to 16 nM; with U937 cells, 2 nM.

Consider `Cc1cc([C@@H]2CCON2C(=O)[C@H]2CC[C@H](Cn3cnc4cc(F)c(C#N)cc43)CC2)co1` [compound 39, trans-5-fluoro-1-((4-((S)-3-(5-methylfuran-3-yl)isoxazolidine-2-carbonyl)cyclohexyl)methyl)-1H-benzo[d]imidazole-6-carbonitrile], for which the IC50 in assay [1] was 28 nM; with U937 cells, 15 nM.

For `N#Cc1cc(F)cc([C@@H]2CCON2C(=O)[C@H]2CC[C@H](Cn3cc4cc(C#N)ccc4n3)CC2)c1` [compound 59, trans-2-((4-((S)-3-(3-cyano-5-fluorophenyl)isoxazolidine-2-carbonyl)cyclohexyl)methyl)-2H-indazole-5-carbonitrile], the half-maximal inhibitory concentration (IC50) in assay [1] is 30 nM; with U937 cells it was 166 nM.

For the compound `Cc1c(F)cc([C@@H]2CCON2C(=O)[C@H]2CC[C@H](Cc3cncc(C#N)c3C)CC2)cc1C#N` [compound 287, trans-5-[[4-[(3S)-3-(3-cyano-5-fluoro-4-methyl-phenyl)isoxazolidine-2-carbonyl]cyclohexyl]methyl]-4-methyl-pyridine-3-carbonitrile], the IC50 was found to be 2 nM in assay [1] and 1 nM with U937 cells.

In the case of `N#Cc1cnc2ccn(C[C@H]3CC[C@H](C(=O)N4OCC[C@H]4c4cncc(F)c4)CC3)c2c1` [compound 3, trans-1-((4-((S)-3-(5-fluoropyridin-3-yl)isoxazolidine-2-carbonyl)cyclohexyl)methyl)-1H-pyrrolo[3,2-b]pyridine-6-carbonitrile], the IC50 in assay [1] amounted to 22 nM; with U937 cells, 18 nM.

Take `N#Cc1cc(F)cc([C@@H]2CCON2C(=O)[C@H]2CC[C@H](Cc3cc(F)c4ncnn4c3)CC2)c1` [compound 206, trans-3-fluoro-5-[(3S)-2-[4-[(8-fluoro-[1,2,4]triazolo[1,5-a]pyridin-6-yl)methyl]cyclohexanecarbonyl]isoxazolidin-3-yl]benzonitrile]: the half-maximal inhibitory concentration (IC50) was 16 nM in assay [1] and 9 nM in the assay on U937 cells.

In the case of `Cc1nc([C@@H]2CCON2C(=O)[C@H]2CC[C@H](Cc3ccc(C4(O)COC4)cc3)CC2)cs1` [compound 369, trans-{4-[4-(3-Hydroxy-oxetan-3-yl)-benzyl]-cyclohexyl}-[(S)-3-(2-methyl-thiazol-4-yl)-isoxazolidin-2-yl]-methanone], the IC50 in assay [1] was 26 nM; in the assay on U937 cells, 24 nM.

`Cn1cc(C[C@H]2CC[C@H](C(=O)N3OCC[C@H]3c3cc(F)cc(C#N)c3)CC2)nn1` [Compound 258, trans-3-fluoro-5-[(3S)-2-[4-[(1-methyltriazol-4-yl)methyl]cyclohexanecarbonyl]isoxazolidin-3-yl]benzonitrile]: the IC50 came to 71 nM in assay [1] and 862 nM in the assay on U937 cells.

For `N#Cc1ccc2cn(C[C@H]3CC[C@H](C(=O)N4OCC[C@H]4c4cnccn4)CC3)nc2c1` [compound 196, trans-2-[[4-[(3S)-3-pyrazin-2-ylisoxazolidine-2-carbonyl]cyclohexyl]methyl]indazole-6-carbonitrile], the IC50 in assay [1] was found to be 75 nM; with U937 cells it was 379 nM.

Regarding `NC(=O)c1ccc2cn(C[C@H]3CC[C@H](C(=O)N4OCC[C@H]4c4cnccn4)CC3)nc2c1` [Compound 228, trans-2-[[4-[(3S)-3-pyrazin-2-ylisoxazolidine-2-carbonyl]cyclohexyl]methyl]indazole-6-carboxamide], the figures for the IC50 (in assay [1]; in the assay on U937 cells) were 65 nM and 191 nM, respectively.

Turning to `N#Cc1cncc([C@@H]2CCON2C(=O)[C@H]2CC[C@H](Cn3ccc4ncc(F)cc43)CC2)c1` [compound 123, trans-5-((S)-2-(4-((6-fluoro-1H-pyrrolo[3,2-b]pyridin-1-yl)methyl)cyclohexane-1-carbonyl)isoxazolidin-3-yl)nicotinonitrile], the IC50 in assay [1] is 46 nM; with U937 cells it was 12 nM.

Regarding `Cc1nc([C@@H]2CCON2C(=O)[C@H]2CC[C@H](Cn3ccc4ncc(C#N)cc43)CC2)cs1` [compound 198, trans-1-[[4-[(3S)-3-(2-methylthiazol-4-yl)isoxazolidine-2-carbonyl]cyclohexyl]methyl]pyrrolo[3,2-b]pyridine-6-carbonitrile], the values for the concentration for half-maximal inhibition (IC50) (in assay [1]; in the assay with U937 cells) were 17 nM and 7 nM, respectively.

For `Cc1nc2c(C)cc(C[C@H]3CC[C@](C)(C(=O)N4OCC[C@H]4c4cnc(C)c(F)c4)CC3)cn2n1` [compound 403, trans-[4-[(2,8-dimethyl-[1,2,4]triazolo[1,5-a]pyridin-6-yl)methyl]-1-methylcyclohexyl]-[(3S)-3-(5-fluoro-6-methylpyridin-3-yl)-1,2-oxazolidin-2-yl]methanone], the values for the half-inhibitory concentration (IC50) (in assay [1]; in the assay on U937 cells) were 15 nM and 2 nM, respectively.

For `Cc1ncc(F)cc1C[C@H]1CC[C@H](C(=O)N2OCC[C@H]2c2ccc(F)cc2)CC1` [compound 179, trans-[4-[(5-fluoro-2-methyl-3-pyridyl)methyl]cyclohexyl]-[(3S)-3-(4-fluorophenyl)isoxazolidin-2-yl]methanone], the IC50 in assay [1] was 32 nM; in the assay on U937 cells it was 5 nM.

Take `N#Cc1cncc([C@@H]2CCON2C(=O)[C@H]2CC[C@H](Cn3ncc4cc(F)ccc43)CC2)c1` [compound 126, trans-5-((S)-2-(4-((5-fluoro-1H-indazol-1-yl)methyl)cyclohexane-1-carbonyl)isoxazolidin-3-yl)nicotinonitrile]: the results for the IC50 (in assay [1]; in the assay on U937 cells) were 37 nM and 29 nM, respectively.

`Cc1cn2ncc(C[C@H]3CC[C@H](C(=O)N4OCC[C@H]4c4csc(C)n4)CC3)cc2n1` [compound 371, trans-[4-(2-Methyl-imidazo[1,2-b]pyridazin-7-ylmethyl)-cyclohexyl]-[(S)-3-(2-methyl-thiazol-4-yl)-isoxazolidin-2-yl]-methanone]: the results for the IC50 (in assay [1]; in the assay on U937 cells) were 65 nM and 147 nM, respectively.

For `Cc1c2ccccc2nn1C[C@H]1CC[C@H](C(=O)N2OCC[C@H]2c2cc(F)cc(C#N)c2)CC1` [compound 63, trans-3-fluoro-5-((S)-2-(4-((3-methyl-2H-indazol-2-yl)methyl)cyclohexane-1-carbonyl)isoxazolidin-3-yl)benzonitrile], the IC50 in assay [1] came out at 27 nM; in the assay with U937 cells, 55 nM.

Regarding `Cc1nc2c(Cl)cc(C[C@H]3CC[C@H](C(=O)N4OCC[C@H]4c4cncc(F)c4)CC3)cn2n1` [compound 382, [4-[(8-chloro-2-methyl-[1,2,4]triazolo[1,5-a]pyridin-6-yl)methyl]cyclohexyl]-[(3S)-3-(5-fluoropyridin-3-yl)-1,2-oxazolidin-2-yl]methanone], the IC50 stood at 26 nM in assay [1] and 8 nM in the assay with U937 cells.

As for `Cc1nc([C@@H]2CCON2C(=O)[C@H]2CC[C@H](Cn3ccc4cc(C(N)=O)ccc43)CC2)cs1` [compound 254, trans-1-[[4-[(3S)-3-(2-methylthiazol-4-yl)isoxazolidine-2-carbonyl]cyclohexyl]methyl]indole-5-carboxamide], the IC50 came out at 20 nM in assay [1] and 96 nM in the assay with U937 cells.
